For ten compounds, GI50 and TGI results are on record in PubChem BioAssay (NCI).

Holding throughout (assay): NCI-60 cell line screen, 48 h
For assay [1], the system named is CAKI-1 renal.
In assay [2] the test system is COLO 205 colon.
Assay [3] has as its system EKVX NSCLC.
The subject of assay [4] is HT29 colon.
In assay [5] the test system is K-562 leukemia.
In assay [6] the test system is SF-295 CNS.
Assay [7] concerns SNB-19 CNS.
Assay [8] deals with SW-620 colon.
Assay [9] deals with UACC-257 melanoma.
Assay [10] has as its system UACC-62 melanoma.

The structures appear in SMILES notation. “And” between values parts separate entries of the source, which are not always exact repeats. Equal values may be shown once.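 Step 1: Grow cells in 96-well plates. Step 2: Expose to compound for 48 hours at 5 concentrations. Step 3: Interpolate endpoints linearly; if unreached, use highest concentration. Here, GI50 denotes the concentration required for 50% inhibition of growth. TGI: total growth inhibition.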

With `O=C(Nn1c2c(sc1=NC1CC1)C(=O)c1ccccc1C2=O)c1cc2ccc1CCc1ccc(cc1)CC2`, the GI50 in assay [1] was 2.48 µM; in assay [2] it was 3.36 µM; in [3], 1.87 µM; in assay [4], 3.32 µM; in assay [5], 2.43 µM; in [6] it was 3.55 µM. The GI50 in assay [7] is 3.09 µM; in assay [8] it was 1.92 µM; in assay [9] it was 1.69 µM; in assay [10] it was 1.62 µM. For the same compound, the TGI in assay [1] is 14.9 µM; in assay [2], 12.7 µM; in [3] it was 12.5 µM; in assay [4], 28.7 µM; in [5], greater than 100 µM; in assay [6] it was 12.7 µM. The TGI in assay [7] was 11.7 µM; in assay [8], 4.32 µM; in assay [9], 3.41 µM; in assay [10], 3.52 µM.

`CN1CCN(c2ccc([N+](=O)[O-])c3no[n+]([O-])c23)CC1`: the GI50 was 0.137 µM in assay [1]; 0.942 µM in assay [2]; 0.135 µM in assay [4]; 0.11 µM in [5]; 0.292 µM in [6]; 0.117 µM in assay [8]. Besides, the GI50 is 0.472 µM in [9] and 0.471 µM in assay [10]. In addition, the TGI in [1] is 1.6 µM and 0.92 µM; in assay [2], 2.33 µM and 2.41 µM; in assay [3] it was 2.83 µM and 2.92 µM; in [4] it was 3.43 µM and 0.512 µM; in assay [5], 0.979 µM; in assay [6] it was 1.82 µM and 1.59 µM. The TGI in assay [7] is 4.82 µM and 2.24 µM; in [8], 0.828 µM and 0.261 µM; in assay [9] it was 2.69 µM and 1.6 µM; in assay [10] it was 2.64 µM and 1.84 µM.

`CC(=O)NNc1nc(C)c(C(/C=C/c2ccc(Cl)cc2)=N/NC(=S)NN)s1`: the TGI in assay [1], in [2], in [3], in assay [4], in assay [5] and in assay [6] was greater than 100 µM in each case. Further, the TGI in assay [7], in [8], in [9] and in assay [10] was greater than 100 µM each time.

With `C[n+]1ccc2[nH]c3ccccc3c2c1`, the TGI in [1], in [2], in [3], in [4], in assay [5] and in assay [6] was greater than 100 µM in each case. In addition, the TGI in assay [7], in assay [8], in assay [9] and in assay [10] was greater than 100 µM each time.

For `Cc1cccc(NC(=O)Cc2nc3ccccc3s2)c1C`, the TGI in assay [1], in [2], in [3], in assay [4], in [5] and in assay [6] was greater than 100 µM each time. Besides, the TGI in [7], in assay [8], in assay [9] and in assay [10] was greater than 100 µM throughout.

With `CN(C)CCC(=O)NCc1c2nc3ccccc3nc2n2ccccc12`, the GI50 in [1] was 60.6 µM; in assay [2] it was 73.3 µM; in [3], 43.1 µM; in [4] it was 35.9 µM; in assay [5] it was greater than 100 µM; in assay [6], 61.1 µM. The GI50 in assay [7] is 52.9 µM; in assay [8], 58.7 µM; in assay [9] it was 73.1 µM; in assay [10] it was greater than 100 µM. For the same compound, the TGI in [1], in assay [2], in assay [3], in [4], in assay [5] and in assay [6] was greater than 100 µM in each case. Moreover, the TGI in [7], in assay [8], in [9] and in [10] was greater than 100 µM in each case.

As to `Cc1cc(S(=O)(=O)Nc2nc3ccsc3c(=O)n2Cc2ccccc2)c(S)cc1Cl`, the GI50 in [1] is 41.2 µM; in [2], 37.5 µM; in [3], 21.8 µM; in [4] it was 43.7 µM; in [5] it was 67.9 µM; in assay [6], 26.8 µM. Besides, the GI50 in [7] is 32.4 µM; in [8], 34.1 µM; in assay [9], 47.8 µM; in assay [10] it was 21.5 µM. For the same compound, the TGI in assay [1] was greater than 100 µM; in assay [2], greater than 100 µM; in [3], 77.3 µM; in assay [4], greater than 100 µM; in [5] it was greater than 100 µM; in assay [6], 98.7 µM. The TGI is greater than 100 µM in assay [7], greater than 100 µM in assay [8], greater than 100 µM in assay [9] and 44.4 µM in assay [10].

On to `O=C(Cc1ccccc1)NN1C(=O)C(Cl)C1c1ccccc1` (stereo not drawn), for which the TGI in [1], in [2], in [3], in assay [4], in assay [5] and in [6] was greater than 100 µM throughout. Besides, the TGI in assay [7], in assay [8], in assay [9] and in assay [10] was greater than 100 µM throughout.

As to `CCOC(CN(C)C(=O)OCC(Cl)(Cl)Cl)OCC`, the TGI in assay [1], in assay [2], in assay [3], in assay [4], in assay [5] and in [6] was greater than 100 µM throughout. Moreover, the TGI in assay [7], in [8], in assay [9] and in assay [10] was greater than 100 µM throughout.

For the compound `COC(=O)C1CCC(N2C(=O)CCC2C(=O)OC)=N1` (stereo not drawn), the TGI in [1], in assay [2], in assay [3], in [4], in assay [5] and in [6] was greater than 100 µM throughout. For the same compound, the TGI in assay [7], in assay [8], in assay [9] and in assay [10] was greater than 100 µM in each case.
